Literature values, collected in patent US20250152568A1, “METHODS OF TREATING COMPLEX REGIONAL PAIN SYNDROME” (Aisa Pharma, Inc., priority 2022, published 2025).

Target: Nav 1.7 sodium channel (Homo sapiens, UniProt Q15858)
Details: 20 mg dose of cilnidipine vs 1800 mg dose of gabapentin; see WO2021/178903

Chain of Nav 1.7 sodium channel (Q15858 whole entry): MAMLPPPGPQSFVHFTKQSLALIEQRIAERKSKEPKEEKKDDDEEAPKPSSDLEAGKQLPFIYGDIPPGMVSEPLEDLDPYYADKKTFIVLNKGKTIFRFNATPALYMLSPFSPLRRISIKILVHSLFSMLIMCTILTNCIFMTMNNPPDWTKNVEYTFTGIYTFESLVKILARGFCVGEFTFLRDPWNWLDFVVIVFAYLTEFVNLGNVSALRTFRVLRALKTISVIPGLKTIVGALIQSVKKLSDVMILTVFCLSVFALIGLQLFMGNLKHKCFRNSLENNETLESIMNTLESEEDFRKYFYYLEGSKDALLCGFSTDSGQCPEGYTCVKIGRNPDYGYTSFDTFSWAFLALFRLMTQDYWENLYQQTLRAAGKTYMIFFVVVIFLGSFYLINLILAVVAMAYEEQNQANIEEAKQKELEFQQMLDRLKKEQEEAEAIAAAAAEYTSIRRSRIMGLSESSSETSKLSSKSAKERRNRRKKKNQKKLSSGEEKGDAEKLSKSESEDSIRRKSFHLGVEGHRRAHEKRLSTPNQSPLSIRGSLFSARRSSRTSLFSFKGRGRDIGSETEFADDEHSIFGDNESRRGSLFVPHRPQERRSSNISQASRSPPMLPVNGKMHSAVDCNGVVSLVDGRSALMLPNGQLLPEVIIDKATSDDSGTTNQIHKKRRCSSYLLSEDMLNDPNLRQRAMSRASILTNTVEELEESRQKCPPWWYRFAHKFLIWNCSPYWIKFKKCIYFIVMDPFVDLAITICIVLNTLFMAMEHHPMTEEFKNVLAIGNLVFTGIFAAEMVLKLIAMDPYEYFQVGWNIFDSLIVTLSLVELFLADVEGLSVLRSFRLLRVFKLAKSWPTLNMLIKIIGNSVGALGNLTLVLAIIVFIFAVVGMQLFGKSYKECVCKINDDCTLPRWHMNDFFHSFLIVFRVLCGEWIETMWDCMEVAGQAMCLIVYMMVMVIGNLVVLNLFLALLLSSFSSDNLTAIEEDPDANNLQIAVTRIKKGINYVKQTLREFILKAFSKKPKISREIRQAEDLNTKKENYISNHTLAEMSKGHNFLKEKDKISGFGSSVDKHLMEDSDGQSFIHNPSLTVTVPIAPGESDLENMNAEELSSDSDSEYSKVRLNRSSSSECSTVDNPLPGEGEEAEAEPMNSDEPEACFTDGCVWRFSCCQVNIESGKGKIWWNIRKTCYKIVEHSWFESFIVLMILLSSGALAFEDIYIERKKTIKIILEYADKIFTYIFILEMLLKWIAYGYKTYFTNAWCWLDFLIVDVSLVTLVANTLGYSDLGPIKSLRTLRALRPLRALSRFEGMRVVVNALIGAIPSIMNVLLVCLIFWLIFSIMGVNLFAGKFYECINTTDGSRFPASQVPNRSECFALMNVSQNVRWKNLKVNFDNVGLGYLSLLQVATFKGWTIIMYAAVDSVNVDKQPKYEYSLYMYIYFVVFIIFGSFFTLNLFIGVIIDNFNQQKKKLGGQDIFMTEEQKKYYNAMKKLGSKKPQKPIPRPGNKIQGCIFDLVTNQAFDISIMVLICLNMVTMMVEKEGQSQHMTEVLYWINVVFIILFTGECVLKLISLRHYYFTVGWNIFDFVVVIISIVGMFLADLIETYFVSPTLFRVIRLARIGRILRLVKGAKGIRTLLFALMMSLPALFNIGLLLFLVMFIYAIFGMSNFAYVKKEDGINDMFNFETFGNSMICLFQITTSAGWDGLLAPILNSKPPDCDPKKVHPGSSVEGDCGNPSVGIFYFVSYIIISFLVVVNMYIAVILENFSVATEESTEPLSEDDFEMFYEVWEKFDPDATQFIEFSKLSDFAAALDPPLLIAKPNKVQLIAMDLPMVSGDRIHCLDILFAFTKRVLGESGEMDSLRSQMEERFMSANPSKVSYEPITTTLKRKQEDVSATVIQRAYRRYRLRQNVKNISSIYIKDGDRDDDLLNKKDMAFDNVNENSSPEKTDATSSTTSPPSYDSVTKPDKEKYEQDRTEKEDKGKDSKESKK

COCCOC(=O)C1=C(C)NC(C)=C(C(=O)OC/C=C/c2ccccc2)C1c1cccc([N+](=O)[O-])c1 (stereo not shown) [cilnidipine]
inhibition of Nav 1.7 compared to an 1800 mg dose of gabapentin: > 6 fold
